{
  "source": "patent US6245797A",
  "about": "“Combination therapy for reducing the risks associated with cardio-and-cerebrovascular disease” (Merck & Co., Inc., priority 1998, dated 2001)",
  "origin": "cited, not measured here",
  "details": "Scandinavian Simvastatin Survival Study, over the course of the 5 year study",
  "data": [
    {"smiles": "CCC(C)(C)C(=O)O[C@H]1C[C@@H](C)C=C2C=C[C@H](C)[C@H](CC[C@@H]3C[C@@H](O)CC(=O)O3)[C@H]21", "note": "[simvastatin]", "values": [
      {"measurement": "treated patients who die of their disease", "value": 5, "unit": "%"}
    ]}
  ]
}
